Legend:
einigen Bakterien = assay: Antibacterial activity of free amino acid antagonists; assay type: cell-based; conditions: lost when built into the tripeptides
[1] = dissertation Universität Tübingen 1975; cited from earlier work
Candida albicans = assay: Growth inhibition / minimal inhibitory concentration in yeast nitrogen base medium; assay type: cell-based
Procedure: Die weiteren Untersuchungen dieser fünf Tripeptide gegenüber Cadida albicans und Candida pseudotropicalis in »yeast nitrogen base« Medium mit einer Zellzahl von 10^4/ml zu Testbeginn führten zu dem Ergebnis, daß diese Tripeptide keinerlei Wachstumshemmung zeigen. Die Tripeptide werden dabei bis zu einer Konzentration von 10 mg/ml Testmedium beurteilt. Bei den Tripeptiden L-Arg-D-Val-L-Phe und L-Arg-D-Ala-L-Phe werden im Gegenteil sogar Wachstumsförderung von Candida albicans festgestellt.
In der beigefügten Tabelle I sind die kleinsten inhibierenden Konzentrationen der beiden beispielsweisen erfindungsgemäßen Tripeptide 1 und 2 denjenigen der freien Antimetaboliten gegenübergestellt anhand des Beispiels candida albicans. Die Untersuchungen wurden in einem yeast nitrogen base Medium mit einem Glukosegehalt von 2% und einem pH-Wert von 7,2 durchgeführt. Die Zellzahl zu Versuchsbeginn beläuft sich auf 10^4/ml. Die Tests werden in Mikrotiterschalen durchgeführt und es wird 24 Stunden bei 30° C inkubiert.

Row | durch Carboxypeptidasen spaltbar (Carboxypeptidasen) | Compound | Wirksamkeit gegenüber einigen Bakterien (einigen Bakterien) | further results
1 | – | NC(Cc1cccs1)C(=O)O (racemic) [β-2-DL-Thienylalanin] | Wirksamkeit zeigen | –
2 | schwerer spaltbar | N=C(N)NCCC[C@H](N)C(=O)NC(Cc1ccc(F)cc1)C(=O)N[C@@H](Cc1ccccc1)C(N)=O (mixture of isomers) [Verbindung 4, L-Arginyl-DL-(p-fluorphenylalanyl)-L-phenylalaninamid] | – | –
3 | – | L-Arginyl-D-allothreonyl-L-phenylalanin | – | antifungische Wirksamkeit [1]: antifungische Wirksamkeit
4 | schwerer spaltbar | CC(=O)N[C@@H](CCCNC(=N)N)C(=O)NC(Cc1ccc(F)cc1)C(=O)N[C@@H](Cc1ccccc1)C(=O)O (mixture of isomers) [Verbindung 3, N 1-Acetyl-L-arginyl-DL-(p-fluorphenylalanyl)-L-phenyialanin] | – | –
5 | – | NC(Cc1ccc(F)cc1)C(=O)O (racemic) [p-F-DL-Phenylalanin] | Wirksamkeit zeigen | Wirksamkeit gegen candida albicans (Candida albicans): nicht wirksam; MIC (Candida albicans; 24 h, all tested Candida albicans isolates, read-out: inhibierende Konzentration): > 256 µg/mL

From patent EP0081122B1, “Carrier tripeptides with antifungal activity” (Helopharm W. Petrik GmbH & Co.KG., priority 1982, dated 1985)
